Tests used:
CFP-D2 = assay: Surfactant resistance of amadoriase during addition of each stabilizer (CFP-D2); format: biochemical, genus Coniochaeta; details: 500 mM HEPES (pH 7.0), 0.08% CTAC, 37°C
Protocol: (§1) In the above surfactant resistance measuring method, various stabilizers are added and the residual activity of an amadoriase is measured in order to evaluate the effect of the stabilizers. […] The concentration sufficient to provide a buffer capacity to a solution refers to the concentration at which pH is maintained within a predetermined range (for example pH5 to 10, pH6 to 8) without having pH change due to other reagents added to the solution. A concentration insufficient to provide a buffer capacity to a solution refers to the concentration at which pH changes by addition of other reagents to the solution and pH falls outside a particular range. These concentrations vary depending upon the type and amount of other reagents to be added to a solution; however, a person skilled in the art can appropriately determine the concentration by conventional methods. Other conditions and procedure can be the same as in the above surfactant resistance measuring method.
It was studied whether or not the addition of any of various stabilizers enhanced the surfactant resistance of an amadoriase. Phosphoric acid, a tricarboxylic acid (e.g., citric acid), a dicarboxylic acid (e.g., malic acid, maleic acid, citraconic acid, malonic acid, glutaric acid, or tartaric acid), a monpcarboxylic acid (e.g., acetic acid), MES, MOPS, MOPSO, or ammonium sulfate was used as a stabilizer. As a Comparative Example, CHES was used. […] Using a 500 mM HEPES (pH 7.0) buffering agent and CFP-D2 purified as described above as a sample, any of the stabilizers was further added, and the surfactant resistance of CFP-D2 was evaluated according to the measurement method for surfactant resistance in Example 1 although under more harsh surfactant treatment conditions in which the final concentration of CTAC was set at 0.08% and the treatment temperature at 37° C.

CFP-T7 [1] = assay: Surfactant resistance of amadoriase during addition of each stabilizer (CFP-T7); format: biochemical, genus Coniochaeta; details: 500 mM HEPES (pH 7.0), 0.01% CTAC
Protocol: as §1
It was studied whether or not the addition of any of various stabilizers enhanced the surfactant resistance of an amadoriase. Phosphoric acid, a tricarboxylic acid (e.g., citric acid), a dicarboxylic acid (e.g., malic acid, maleic acid, citraconic acid, malonic acid, glutaric acid, or tartaric acid), a monpcarboxylic acid (e.g., acetic acid), MES, MOPS, MOPSO, or ammonium sulfate was used as a stabilizer. As a Comparative Example, CHES was used. To prevent change in pH when adding the stabilizer, 500 mM HEPES (pH 7.0) was used as a buffer solution; CFP-T7 purified as described above was used as a sample; the final concentration of CTAC was set at 0.01%; and any of the stabilizers was further added to evaluate the surfactant resistance of CFP-T7 according to the measurement method for surfactant resistance in Example 1. Using a 500 mM HEPES (pH 7.0) buffering agent and CFP-D2 purified as described above as a sample, any of the stabilizers was further added, and the surfactant resistance of CFP-D2 was evaluated according to the measurement method for surfactant resistance in Example 1 although under more harsh surfactant treatment conditions in which the final concentration of CTAC was set at 0.08% and the treatment temperature at 37° C.

CFP-T7 [2] = assay: Surfactant resistance of amadoriase in presence of buffering agents; format: biochemical, genus Coniochaeta; details: for CFP-T7 Residual Activity (%): 0.01% CTAC, purified CFP-T7
Protocol: In the above surfactant resistance measuring method, the residual activity of an amadoriase is measured by using various buffers in place of a 30 mM MES/21 mM Tris buffer solution. In this manner, the contribution of the buffer to the amadoriase residual activity can be evaluated. For example, in place of the 30 mM MES/21 mM Tris buffer solution (pH 6.5), e.g., a phosphate buffer solution (pH 7.0), a citrate buffer solution (pH 6.0), a HEPES buffer solution (pH 7.0) or an ACES buffer solution (pH 7.0) can be used. Other conditions and procedure can be the same as in the above surfactant resistance measuring method.
It was studied whether the surfactant resistance of an amadoriase is enhanced or not when a buffering agent other than a 30 mM MES/21 mM Tris buffering agent (pH 6.5) was used. Using CFP-T7 purified as described above as a sample, the final concentration of CTAC was set at 0.01% to evaluate the surfactant resistance of CFP-T7 according to the measurement method for surfactant resistance in Example 1 in the presence of any of various buffering agents, specifically a phosphate buffering agent containing phosphoric acid and potassium phosphate (pH 7.0), a citrate buffering agent containing citric acid and sodium citrate (pH 6.0), an MES buffering agent containing MES and it sodium salt (pH 7.0), an HEPES buffering agent containing HEPES and its sodium salt (pH 7.0), and an ACES buffering agent containing ACES and its sodium salt (pH 7.0), in place of the 30 mM MES/21 mM Tris buffering agent (pH 6.5).

PnFX = assay: Surfactant resistance of PnFX during addition of each stabilizer; format: biochemical, Phaeosphaeria nodorum; details: 300 mM HEPES (pH 7.0), 0.04% CTAC
Protocol: The same stabilizers as those described above were used as stabilizers; 300 mM HEPES (pH 7.0) was used as a buffering agent to prevent a change in pH when the stabilizers was each added; PnFX purified as described above was used as a sample; the final concentration of CTAC was set at 0.04%; and the surfactant resistance of PnFX was evaluated as described above.

[3] = Measurement of fructosyl peptide sample (αFVH) under mixing of CTAC, change in absorbance at 751 nm; format: biochemical; details: for Amount of Change in Absorbance at Wavelength of 751 nm under Mixing of Each Concentration of CTAC: as in Example 5, Table 7
Protocol: The purified enzyme of CFP-T7 and CFP-D7 obtained in Example 3-2 was used to measure a sample as shown below. The activity values of CFP-T7 and CFP-D7 were determined using (reagent 1) adjusted to pH 7.0 with αFVH at a final concentration of 5 mM as a substrate according to the method for measuring amadoriase activity.
(Reagent 4) αFVH (125 mg) was dissolved in ion-exchanged water, the volume of the solution was fixed to 10 ml, and thereby a 30 mM substrate solution was obtained. In addition, the resultant was diluted by 1/714 with a CTAC solution to provide a 42 μM αFVH/0% to 0.2% CTAC solution.
(Reagent 6) (50 μl) was added to a mixed solution of 135 μl of (reagent 5) warmed at 37° C. for 5 minutes in advance and 25 μl of the sample prepared in (11) above to start reaction, and absorbance at a wavelength of 751 nm after reaction at 37° C. for 5 minutes was measured using an automated analyzer, Bio Majesty JCA-BM1650 (from JEOL Ltd.). Absorbance (reagent blank) at a wavelength of 751 nm measured by a similar operation for (reagent 4) prepared using ion-exchanged water in place of the substrate solution was used as a control to calculate the amount of change in absorbance (difference) when each sample was measured, using the following equation. The final concentration of a colorimetric substrate, DA-64, was 0.15 mM; the final concentration of αFVH in the case of the presence of a substrate was 5 μM; and the length (optical path) of the cell used for absorbance measurement was 1 cm. Amount of change in absorbance=ΔAes−Ae0
The amount of change in absorbance when αFVH/0% to 0.2% CTAC were used as samples was calculated.
The purified preparations of amadoriases obtained as described above were used as samples to measure αFVH under the mixing of CTAC using PnFX and NvFX as in Example 5.

[4] = Buffer Solution 50 mM, pH 7.0 (citrate pH 6.0)
[5] = Buffer Solution 100 mM, pH 7.0 (citrate pH 6.0)

Molecule | CFP-T7 Residual Activity (%) (CFP-T7 [2]; [4]) | CFP-T7 Residual Activity (%) (CFP-T7 [2]; [5]) | CFP-T7 Residual Activity (%) (CFP-T7 [2]; Buffer Solution 150 mM, pH 7.0) | CFP-T7 Residual Activity (%) (CFP-T7 [2]; Buffer Solution 300 mM, pH 7.0) | PnFX Residual Activity (%) (PnFX; Stabilizer 5 mM) | CFP-D2 Residual Activity (%) (CFP-D2; Stabilizer 5 mM) | CFP-T7 Residual Activity (%) (CFP-T7 [1]; Stabilizer 2 mM, Table 9-1) | CFP-T7 Residual Activity (%) (CFP-T7 [1]; Stabilizer 5 mM, Table 9-1) | CFP-T7 Residual Activity (%) (CFP-T7 [1]; Stabilizer 10 mM, Table 9-1) | CFP-T7 Residual Activity (%) (CFP-T7 [1]; Stabilizer 20 mM, Table 9-1) | other results
O=S(=O)(O)CCCN1CCOCC1 [MOPS, 3-(N-morpholino)propanesulfonic acid] | – | – | – | – | – | – | – | – | – | – | CFP-D2 Residual Activity (%) (CFP-D2; Stabilizer 20 mM): 42.4%; CFP-T7 Residual Activity (%) (CFP-T7 [1]; Stabilizer 10 mM, Table 9-2): 6.5%; CFP-T7 Residual Activity (%) (CFP-T7 [1]; Stabilizer 20 mM, Table 9-2): 20.6%
O=P(O)(O)O [Phosphate, phosphoric acid] | 27.2 | 68.3 | 88.5 | 98.4 | 37.5 | 72.8 | 28.1 | 61.6 | 76.8 | 98.6 | CFP-T7 Residual Activity (%) (CFP-T7 [2]; Buffer Solution 20 mM, pH 7.0 (citrate pH 6.0)): 15.1%; CFP-T7 Residual Activity (%) (CFP-T7 [1]; Stabilizer 50 mM, Table 9-1): 100.0%
O=C(O)CC(O)(CC(=O)O)C(=O)O [Citrate, citric acid] | 108.2 | 105.7 | – | – | – | – | 87.6 | – | – | – | CFP-T7 Residual Activity (%) (CFP-T7 [2]; Buffer Solution 10 mM, pH 7.0 (citrate pH 6.0)): 104.1%; amadoriase stabilizing effect of the buffer (in words) (CFP-T7 [2]; CFP-T7 in the presence of surfactant): inactivation due to the surfactant did not occur even at 10 mM; PnFX Residual Activity (%) (PnFX; Stabilizer 0.5 mM): 47.3%; CFP-T7 Residual Activity (%) (CFP-T7 [1]; Stabilizer 0.2 mM, Table 9-1): 12.2%; CFP-T7 Residual Activity (%) (CFP-T7 [1]; Stabilizer 0.5 mM, Table 9-1): 30.7%
O=S(=O)(O)CCN1CCOCC1 [MES, 2-(N-morpholino)ethanesulfonic acid] | 14.3 | 17.6 | 62.9 | 95.8 | – | – | – | – | 19.5 | 54.1 | PnFX Residual Activity (%) (PnFX; Stabilizer 20 mM): 89.6%; CFP-T7 Residual Activity (%) (CFP-T7 [1]; Stabilizer 40 mM, Table 9-1): 103.0%
O=C(O)CC(O)C(=O)O (stereo not drawn) [Malate, malic acid] | – | – | – | – | 60.4 | 59.2 | 12.6 | 35.4 | 74.3 | – | –
PnFX: fructosyl peptide oxidase derived from Phaeosphaeria nodorum, SEQ ID NO: 40 (protein, listed as Phaeosphaeria nodorum) MAPSRANTSVIVVGGGGTIGSSTALHLVRSGYTPSNVTVLDAYPIPSSQSAGNDLNKIMGVSLRNPVDLQLALEARQMWNEDELFKKFFHNTGRLDCAHGEKDIADLKSGYQALVDAGLDATNEWLDSEDEILKRMPLLSRDQIKGWKAIFSKDGGWLAAAKAINAVGEYLRDQGVRFGFYGAGSFKAPLLAEGVCIGVETVDGTRYYADKVVLAAGAWSPTLVELHEQCVSKAWVYGHIQLTPEEAARYKNSPVVYNGDVGFFFEPNEHGVIKVCDEFPGFTRFKMHQPFGAKAPKRISVPRSHAKHPTDTIPDASDVSIRRAIATFMPQFKNKKMFNQAMCWCTDTADAALLICEHPEWKNFVLATGDSGHSFKLLPNIGKHVVELLEGTLADDLAHAWRWRPGSGDALKSRRSAPAKDLADMPGWNHDKPRANL | – | – | – | – | – | – | – | – | – | – | measurement of αFVH under the mixing of CTAC (in words) [3]: capable of measuring αFVH as a substrate under the mixing of CTAC at a concentration as high as 0.02% or more; Amount of Change in Absorbance at Wavelength of 751 nm under Mixing of Each Concentration of CTAC ([3]; Mixing of CTAC 0%): 0.173; Amount of Change in Absorbance at Wavelength of 751 nm under Mixing of Each Concentration of CTAC ([3]; Mixing of CTAC 0.01%): 0.115; Amount of Change in Absorbance at Wavelength of 751 nm under Mixing of Each Concentration of CTAC ([3]; Mixing of CTAC 0.02%): 0.084; Amount of Change in Absorbance at Wavelength of 751 nm under Mixing of Each Concentration of CTAC ([3]; Mixing of CTAC 0.04%): 0.026; Amount of Change in Absorbance at Wavelength of 751 nm under Mixing of Each Concentration of CTAC ([3]; Mixing of CTAC 0.06%): 0.008; Amount of Change in Absorbance at Wavelength of 751 nm under Mixing of Each Concentration of CTAC ([3]; Mixing of CTAC 0.1%): 0.003; Amount of Change in Absorbance at Wavelength of 751 nm under Mixing of Each Concentration of CTAC ([3]; Mixing of CTAC 0.2%): 0.001; PnFX Residual Activity (%) (PnFX; Stabilizer None): 27.9%
